# Laboratory results: patent publication US20140162974A1, “METHODS FOR MODULATION OF PHOSPHORUS AND FGF23” (Luitpold Pharmaceuticals, Inc., priority 2012, published 2014)
# How the values were obtained:
# phosphate = assay: Prior studies 1VIT04002/1VIT04003: phosphate change after FCM; assay type: in vivo, human; settings: iron deficiency anemia secondary to heavy uterine bleeding; measured at baseline and days 7, 14, 28, 42; N=228
# [1] = test system: hemoglobin, ferritin, TSAT; assay: VIT-30 efficacy: hemoglobin and iron indices; assay type: in vivo, human
# Protocol: Study visits were on Days 0, 3, 7, 10, 14, 28, 56, and 120. A phone assessment occurred on Day 90.
# The Venofer Group received 5 doses of Venofer, 200 mg for a total dose of 1,000 mg.
# For Venofer, subjects received, as an IV push injection over 2 to 5 minutes, 200 mg on Days 0, 7, and 14 with 2 additional doses given: 1 between Days 0 and 7 and the other between Days 7 and 14 (i.e., for a total of 5 doses [1,000 mg]).
# For efficacy, the primary efficacy measure was the mean change from baseline to the highest observed hemoglobin any time between baseline and end of treatment period (Day 56) or time of intervention. Supportive efficacy measures included the following: (a) proportion of subjects achieving an increase in hemoglobin of ≧1 g/dL any time between baseline and end of treatment period (Day 56) or time of intervention; (b) mean change from baseline to the highest observed ferritin any time between baseline and treatment period (Day 56) or time of intervention; (c) mean change from baseline to the highest observed TSAT any time between baseline and treatment period (Day 56) or time of intervention; and (d) mean change from baseline to the pre-dosing value on Day 7 for hemoglobin, ferritin, and TSAT.
# The hemoglobin baseline was defined as the average of the last 2 hemoglobin values from the central laboratory prior to the first dose of study drug. If only 1 centrally-measured hemoglobin value was available prior to the first dose of study drug, the single value was used for baseline. Non-inferiority was concluded if the lower limit of the 2-sided CI was ≧−0.075. This non-inferiority margin preserved >50% of the difference from oral iron observed previously.
# The mean change from baseline to highest TSAT and ferritin was assessed for treatment group differences with the 95% 2-sided CI (based on normal distribution, assuming equal variances). Mean change from baseline to each scheduled visit was similarly assessed for hemoglobin, TSAT, ferritin, serum iron, total iron binding capacity, and unsaturated iron binding capacity. Baseline was calculated as described above. Assessments were assigned to scheduled visits as follows (if the assessment was on a dosing day for IV iron, the assessment before dosing was selected): • Day 7: Assessments on Days 4 through 10. • Day 14: Assessments on Days 11 through 21. • Day 28: Assessments on Days 22 through 35. • Day 56: Assessments on Days 50 through 63.
# [2] = Example 3 trial: adverse events; assay type: in vivo, human
# Protocol: Study visits were on Days 0 (when iron was infused), 1 (24 hours after iron infusion), 7, 14, and 35. The primary objectives were to determine the effect of iron deficiency on cFGF23 and iFGF23 levels and the effect of intravenous iron on iFGF23 and cFGF23 levels.
# Randomization occurred centrally via a fax-based system. […] The complete dose was infused over 15 minutes on day 0. […] An initial test dose of 25 mg was administered slowly over 5 minutes.
# Laboratory testing of blood and three-hour urine collections was performed at the screening visit and on study days 0 (when iron was infused), 1 (24 hours after iron infusion), 7, 14, and 35 (see e.g., FIG. 2A). Any subject who experienced a reduction in serum phosphate below the normal range after day 0 underwent additional phosphate measurements at 14 day intervals following day 35 until the level returned to the normal reference range. Safety evaluations of all subjects included ascertainment of adverse events, physical examinations at all study visits, and laboratory assessments. Any subject who withdrew from the study received a follow-up phone call to ascertain adverse events 30 days after they received study drug.
# The pre-specified primary endpoints were changes in blood and urine markers of phosphate and bone metabolism among the evaluable population, defined as those subjects with baseline and at least one post-randomization set of FGF23 and blood and urinary phosphate levels. Secondary endpoints included the proportion of subjects achieving a hemoglobin increase […] anytime between baseline and day 35, and the change from baseline to highest hemoglobin, ferritin, and TSAT anytime during the 35-day study period. Additional safety endpoints included incidence, severity, and seriousness of adverse events, and incidence of treatment-emergent abnormal clinical laboratory values in the safety population, defined as all subjects who received the study drug regardless of subsequent laboratory testing.
# The number and proportion of subjects who experienced an adverse event in the safety population was summarized and rates between the iron treatment groups using Fisher's exact test were compared for the categorical safety endpoints. Analyses were conducted using SAS version 9 (Cary, N.C.). All statistical tests were 2-tailed and p values<0.05 were considered statistically significant.
# [3] = Single-dose toxicity studies; assay type: in vivo, rodents and dogs
# [4] = In vitro and in vivo mutagenicity tests
# [5] = in vivo, cited from earlier work
# serum phosphate = settings: previous studies (2-10); cited from earlier work
substance,measurement,setting,value
"polynuclear iron (III)-hydroxide 4(R)-(poly-(1→4)-O-α-glucopyranosyl)-oxy-2(R),3(S),5(R),6-tetrahydroxy-hexanoate [FCM]",mean change in phosphate,phosphate,1.9 mg/dL
same,"proportion of subjects with an increase in hemoglobin ≧1.0 g/dL, FCM compared with Venofer",[1]; anytime between baseline and Day 56 or time of intervention,statistically significantly greater
same,"mean increases in ferritin, TSAT, serum iron and mean decreases in TIBC and unsaturated IBC, FCM compared with Venofer",[1]; baseline to highest value between baseline and Day 56 or time of intervention,statistically significantly greater
same,"mean increase in hemoglobin from baseline to highest value, FCM compared with Venofer",[1]; between baseline and Day 56 or time of intervention,statistically significantly greater
same,"noninferiority test on mean increase in hemoglobin, FCM to Venofer",[1]; lower limit of 2-sided 95% CI ≧−0.2,noninferiority
same,"noninferiority test on proportion with hemoglobin increase ≧1.0 g/dL, FCM to Venofer","[1]; overall population, 2-sided 95% CI",noninferiority
same,subjects who experienced one or more adverse events,[2],68%
same,subjects with adverse events considered to be related to study drug,[2],32%
same,adverse event: reduced serum phosphate noted by subjects' physicians,[2]; p=0.008 between groups,32%
same,"Discontinuation from study due to adverse event, n (%)",[2]; safety population,2 (8%) n (%)
same,"Patients experiencing one or more adverse events related to study drug, n (%)",[2]; safety population,8 (32%) n (%)
same,"Patients experiencing one or more adverse events, n (%)",[2]; safety population,17 (68%) n (%)
same,"Patients experiencing one or more serious adverse events, n (%)",[2]; safety population,0 (0%) n (%)
same,"safe and tolerated single intravenous dose, as multiple of the equivalent of 1,000 mg iron once weekly in humans",[3],up to 60 times
same,"clastogenicity, mutagenicity, chromosomal damage or bone marrow cell toxicity",[4],no evidence
same,tissue distribution after intravenous administration,[5]; iv,"mainly found in the liver, spleen, and bone marrow"
same,projected calculated terminal half-life (t1/2),[5],approximately 16 hours
same,occurrence of transient reductions in serum phosphate levels,serum phosphate,up to 60%
